Results reported in PMC5641952 (ACS Medicinal Chemistry Letters, 2017).

The molecules below were run against MDM2 (Homo sapiens, UniProt Q00987) (assay: Fluorescence polarization). Details: FP assay.

activity toward MDM2 (in words)	Compound
only slightly or not active at all	O=C(O)c1[nH]c2cc(Cl)ccc2c1C1C(=O)NCCCCCCCCCCCCCC(=O)N1Cc1ccc(F)cc1 (stereo not drawn) [1d]
only slightly or not active at all	O=C(O)c1[nH]c2cc(Cl)ccc2c1C1C(=O)NCCCCCCCCCCCCCC(=O)N1Cc1ccc(Cl)cc1 (stereo not drawn) [1f]

Compound	activity toward MDM2 (in words)
CCOC(=O)c1[nH]c2cc(Cl)ccc2c1C1C(=O)NCCCCCCCCCCCCCCCCCCCC(=O)N1Cc1ccc(OCc2ccc(Cl)c(Cl)c2)cc1 (stereo not drawn) [2k]	orders of magnitude less reactive or inactive
